Test results from PubChem BioAssay AID1996.
Values after ≈ are worked out from the molar mass of the structure shown.

Conditions: buffer; pH 7.4; 200.0 µM

Point of comparison: `C=CCSc1nc(=O)n2ccc(C)cc2n1`, solubility kinetic 0.0317 mg/mL (≈ 136 µM). Against it:
- COc1ccc(CCN(C)c2ncnc3sccc23)cc1OC — higher, > 0.0494 mg/mL
- CC(C)Cc1nc2oc3c(Cl)ncnc3c2c2c1CCCC2 — lower, < 0.0002 mg/mL
- COc1ccc(Cn2c(=O)cc(C)[nH]c2=S)cc1 — 1.6-fold lower, 0.0202 mg/mL (≈ 77 µM)
- C=CCNC(=S)N1CCC(C(=O)c2ccc(F)cc2)CC1 — higher, > 0.046 mg/mL
- COC(=O)c1ccccc1NC(=S)NC(C)=O — higher, > 0.0378 mg/mL
- COC(=O)c1ccc(NC(=O)CNc2ccccc2)cc1 — within 1.5-fold, 0.0283 mg/mL (≈ 99.5 µM)
- Cn1c(CO)nc2c3ccccc3ccc21 — higher, > 0.0318 mg/mL
- CC(C)(CC(=O)O)CC(=O)N1CCN(c2nc3cc(Cl)ccc3s2)CC1 — higher, > 0.0594 mg/mL
- COc1ccc(NC(=O)CCC(=O)c2ccc(C(C)C)cc2)cc1 — lower, < 0.0007 mg/mL
- COC(=O)c1ccc2c(c1)NC(=O)c1ccccc1S2 — 8.1-fold lower, 0.0039 mg/mL (≈ 13.7 µM)
- Cc1ccc(CNCCNCCO)s1.Cl — higher, > 0.0431 mg/mL
- CCOc1cc(/C=N/OC(C)=O)ccc1OCc1ccccc1 — within 1.5-fold, 0.0272 mg/mL (≈ 86.8 µM)
- Clc1cc(/C=N\NC2=NCCN2)cc(Cl)n1 — higher, > 0.0387 mg/mL
- N[C@@H](Cc1cc(Br)c(O)c(Br)c1)C(=O)O — higher, > 0.0508 mg/mL
- COc1ccccc1CC(=O)NC1CC1 — within 1.5-fold, 0.0296 mg/mL (≈ 144 µM)
- C=CCN(c1ccccc1)S(=O)(=O)c1cccc(C(=O)NCc2ccco2)c1 — within 1.5-fold, 0.0239 mg/mL (≈ 60.3 µM)
- Cc1ccc2c(c1)c1c3n2CCNC3CCC1.Cl (centres undefined) — higher, > 0.0394 mg/mL
- Cc1ccc(CN2C(=O)C(C)Oc3ccccc32)cc1 (centres undefined) — 6.7-fold lower, 0.0047 mg/mL (≈ 17.6 µM)
- Cc1ccccc1CN1CCN(CC(=O)NC(C)c2ccccc2)CC1 (centres undefined) — 1.5-fold higher, 0.0478 mg/mL (≈ 136 µM)
- Cc1ccccc1OCC(=O)NCCNC(=O)c1ccncc1 — higher, > 0.047 mg/mL
- CC1(c2ccc3noc(-c4cccc(F)c4)c3c2)OCCO1 — lower, < 0.0006 mg/mL
- Fc1cccc(NC(=S)N2CCN(c3ccccn3)CC2)c1 — 5.7-fold lower, 0.0056 mg/mL (≈ 17.7 µM)
- COc1ccccc1Nc1nc(Cl)nc(NC(C)(C)C)n1 — 4.9-fold lower, 0.0065 mg/mL (≈ 21.1 µM)
- O=C(NC(=S)Nc1ccccc1Br)C1CCC1 — 4.1-fold lower, 0.0078 mg/mL (≈ 24.9 µM)
- Cc1c(C(=O)O)nn(-c2cccc(C(F)(F)F)c2)c(=O)c1C#N — higher, > 0.0485 mg/mL
- O=C(CN1C(=O)NC(c2ccccc2)(c2ccccc2)C1=O)NCc1ccco1 — 2.3-fold lower, 0.0137 mg/mL (≈ 35.2 µM)
- COc1ccc(CCNC(=O)c2ccc3c(c2)OCO3)cc1 — 13-fold lower, 0.0025 mg/mL (≈ 8.35 µM)
- COCC(=O)N(Cc1cc2ccc(C)cc2[nH]c1=O)c1ccc(C)cc1C — 6.5-fold lower, 0.0049 mg/mL (≈ 13.4 µM)
- Cc1csc(C(=O)O)c1NC(=O)c1ccc(F)cc1 — higher, > 0.0419 mg/mL
- O=C(c1cc(-c2ccc(Cl)cc2)on1)N1CCCC1 — 23-fold lower, 0.0014 mg/mL (≈ 5.06 µM)
- CCOc1ncccc1C(=O)OC(C)C(=O)NC1CCCCC1 (centres undefined) — higher, > 0.0481 mg/mL
- N#Cc1ccc(S(=O)(=O)Nc2ccccc2N2CCOCC2)cc1 — higher, > 0.0515 mg/mL
- Clc1ccc2nc(-c3ccc(Cl)nc3)[nH]c2c1 — 2.3-fold lower, 0.0135 mg/mL (≈ 51.1 µM)
- O=c1oc(-c2ccccc2F)nc2scc(-c3ccccc3)c12 — lower, < 0.0007 mg/mL
- O=C(NCc1ccccn1)C1CC(c2ccccc2Cl)=NO1 (centres undefined) — higher, > 0.0474 mg/mL
- O=C(c1cc2cc(F)ccc2[nH]1)N1CCC2(CC1)OCCO2 — 1.6-fold lower, 0.0202 mg/mL (≈ 66.4 µM)
- CN(CCc1nnc(N)s1)[N+](=O)[O-] — not separable, > 0.0305 mg/mL
- Cc1ccccc1-n1c(=O)n(Cc2ccccc2)c(=O)c2[nH]cnc21 — higher, > 0.0499 mg/mL
- O=[N+]([O-])c1ccc(COc2cccnc2)cc1 — higher, > 0.0345 mg/mL
- Cc1ccc2c(c1)C(=O)CCCCC(=O)N2 — higher, > 0.0326 mg/mL
- O=C(CSc1ccc(F)cc1)Nc1ccc(C2SCCS2)cc1 — lower, < 0.0008 mg/mL
- O=C(c1ncc[nH]1)c1cccs1 — not separable, > 0.0267 mg/mL
- CC(=NCc1ccc2c(c1)OCO2)c1c(O)n(-c2ccccc2)c(=O)[nH]c1=O — 4.8-fold lower, 0.0066 mg/mL (≈ 17.4 µM)
